Among the data in the OligoGym collection are normalised inhibition (eCFP-eYFP dual reporter) values, retold here.

Oligonucleotides are written 5' to 3', each unit as a sugar letter and its base; * is a phosphorothioate linkage, no mark a phosphodiester; rarer units and linkages stand in square brackets, end groups in braces. Plain capitals give the bases only. d = 2'-deoxy (DNA); r = 2'-OH (RNA)
Note: test concentration or dose not given here.

The data set concerns the target P2RX3. As to the kind of experiment: reporter assay of Huesken 2005. The note with it: siRNA.
On to “sense rArCrUrUrCrArCrUrArUrUrUrUrCrArUrCrArAdTdT / antisense rUrUrGrArUrGrArArArArUrArGrUrGrArArGrUdTdC”, for which the normalised inhibition (eCFP-eYFP dual reporter) came out at 92.9%.
In the case of “sense rArCrUrUrUrGrUrArGrGrGrUrGrGrGrUrUrUrUdTdT / antisense rArArArArCrCrCrArCrCrCrUrArCrArArArGrUdAdG” it was 89.4%.
In the case of “sense rArGrArCrUrArCrGrCrUrGrArArArArUrCrGrCdTdT / antisense rGrCrGrArUrUrUrUrCrArGrCrGrUrArGrUrCrUdCdA” it was 77.1%; in that of “sense rArGrGrArGrArArArUrArCrCrGrCrUrGrUrGrUdTdT / antisense rArCrArCrArGrCrGrGrUrArUrUrUrCrUrCrCrUdCdA”, 71.8%; in that of “sense rArGrGrUrGrGrArCrArCrArGrUrGrGrArArArCdTdT / antisense rGrUrUrUrCrCrArCrUrGrUrGrUrCrCrArCrCrUdCdC”, 91.4%.
With “sense rArGrUrArCrArArArGrCrCrArArGrArArGrUrUdTdT / antisense rArArCrUrUrCrUrUrGrGrCrUrUrUrGrUrArCrUdGdG” the figure was 99.5%.
As to “sense rArGrUrCrGrGrUrGrGrUrUrGrUrGrArArGrArGdTdT / antisense rCrUrCrUrUrCrArCrArArCrCrArCrCrGrArCrUdTdG”, the normalised inhibition (eCFP-eYFP dual reporter) is 64.9%.
In the case of “sense rArGrUrUrCrArGrCrUrUrCrUrGrArUrCrArUrCdTdT / antisense rGrArUrGrArUrCrArGrArArGrCrUrGrArArCrUdAdC” it was 72.3%.
For the substance “sense rArUrCrArArGrArArCrArGrCrArUrCrCrGrUrUdTdT / antisense rArArCrGrGrArUrGrCrUrGrUrUrCrUrUrGrArUdGdA”, the normalised inhibition (eCFP-eYFP dual reporter) worked out at 70.6%.
On to “sense rArUrCrGrGrGrArUrCrArUrCrArArCrCrGrArGdTdT / antisense rCrUrCrGrGrUrUrGrArUrGrArUrCrCrCrGrArUdGdG”, for which the normalised inhibition (eCFP-eYFP dual reporter) came to 39.3%.
In the case of “sense rArUrGrUrGrUrCrUrGrArUrUrArCrGrUrGrArCdTdT / antisense rGrUrCrArCrGrUrArArUrCrArGrArCrArCrArUdCdC” it was 33.9%; in that of “sense rArUrUrGrUrUrArCrUrGrArArArArUrCrArGrAdTdT / antisense rUrCrUrGrArUrUrUrUrCrArGrUrArArCrArArUdCdA”, 74.6%; in that of “sense rCrArArGrGrArUrUrCrUrGrCrCrCrArGrArGrAdTdT / antisense rUrCrUrCrUrGrGrGrCrArGrArArUrCrCrUrUrGdCdA”, 102%.
On to “sense rCrArGrGrCrUrArCrArArCrUrUrCrArGrGrUrUdTdT / antisense rArArCrCrUrGrArArGrUrUrGrUrArGrCrCrUrGdGdG”, for which the normalised inhibition (eCFP-eYFP dual reporter) turned out to be 95.5%.
As to “sense rCrArUrCrArArCrCrGrArGrUrArGrUrUrCrArGdTdT / antisense rCrUrGrArArCrUrArCrUrCrGrGrUrUrGrArUrGdAdT”, the normalised inhibition (eCFP-eYFP dual reporter) was found to be 74.7%.
With “sense rCrArUrCrArUrCrCrCrCrArCrCrArUrCrArUrCdTdT / antisense rGrArUrGrArUrGrGrUrGrGrGrGrArUrGrArUrGdTdT” the figure was 38.5%; with “sense rCrCrArArGrArUrGrArUrUrGrUrUrArCrUrGrAdTdT / antisense rUrCrArGrUrArArCrArArUrCrArUrCrUrUrGrGdTdG”, 98.9%.
Regarding “sense rCrCrArCrArGrCrGrGrArGrArArGrCrArGrUrCdTdT / antisense rGrArCrUrGrCrUrUrCrUrCrCrGrCrUrGrUrGrGdTdC”, the normalised inhibition (eCFP-eYFP dual reporter) is 62.7%.
For “sense rCrCrArCrCrUrCrArGrGrGrCrArCrCrUrCrGrGdTdT / antisense rCrCrGrArGrGrUrGrCrCrCrUrGrArGrGrUrGrGdCdG”, the normalised inhibition (eCFP-eYFP dual reporter) is 70.2%.
Take “sense rCrCrGrGrCrUrCrGrArCrArGrCrGrUrUrUrCrUdTdT / antisense rArGrArArArCrGrCrUrGrUrCrGrArGrCrCrGrGdGdT”: the normalised inhibition (eCFP-eYFP dual reporter) is 98%.
With “sense rCrCrUrGrArCrArGrCrCrArGrGrGrArCrArUrGdTdT / antisense rCrArUrGrUrCrCrCrUrGrGrCrUrGrUrCrArGrGdTdT” the figure was 33.4%; with “sense rCrGrCrArCrCrCrUrCrCrUrGrArArGrGrCrUrUdTdT / antisense rArArGrCrCrUrUrCrArGrGrArGrGrGrUrGrCrGdGdT”, 67.9%.
In the case of “sense rCrGrCrCrArCrCrUrCrArGrGrGrCrArCrCrUrCdTdT / antisense rGrArGrGrUrGrCrCrCrUrGrArGrGrUrGrGrCrGdTdC” it was 13%; in that of “sense rCrGrCrGrGrCrUrUrUrGrArCrCrArArCrCrCrAdTdT / antisense rUrGrGrGrUrUrGrGrUrCrArArArGrCrCrGrCrGdAdT”, 84.4%.
In the case of “sense rCrGrGrCrUrCrGrArCrArGrCrGrUrUrUrCrUrGdTdT / antisense rCrArGrArArArCrGrCrUrGrUrCrGrArGrCrCrGdGdG” it was 86%.
Turning to “sense rCrGrUrGrArArCrUrArCrArGrCrUrCrUrGrUrGdTdT / antisense rCrArCrArGrArGrCrUrGrUrArGrUrUrCrArCrGdCdA”, the normalised inhibition (eCFP-eYFP dual reporter) was found to be 42%.
With “sense rCrUrArCrGrCrCrArArCrArGrArGrUrCrArUrGdTdT / antisense rCrArUrGrArCrUrCrUrGrUrUrGrGrCrGrUrArGdAdG” the figure was 53.4%.
In the case of “sense rCrUrCrGrArCrArGrCrGrUrUrUrCrUrGrArGrAdTdT / antisense rUrCrUrCrArGrArArArCrGrCrUrGrUrCrGrArGdCdC” it was 64.2%; in that of “sense rCrUrCrUrGrUrGrCrUrCrCrGrGrArCrCrUrGrUdTdT / antisense rArCrArGrGrUrCrCrGrGrArGrCrArCrArGrArGdCdT”, 41.9%.
With “sense rCrUrGrArArArArUrCrArGrArUrGrCrArArGrGdTdT / antisense rCrCrUrUrGrCrArUrCrUrGrArUrUrUrUrCrArGdTdA” the figure was 85.5%; with “sense rCrUrGrArUrUrArCrGrUrGrArCrGrCrCrArCrCdTdT / antisense rGrGrUrGrGrCrGrUrCrArCrGrUrArArUrCrArGdAdC”, 50%.
Consider “sense rCrUrGrGrArCrCrArUrCrGrGrGrArUrCrArUrCdTdT / antisense rGrArUrGrArUrCrCrCrGrArUrGrGrUrCrCrArGdCdT”, for which the normalised inhibition (eCFP-eYFP dual reporter) amounted to 60.7%.
Turning to “sense rCrUrUrCrCrCrArArCrCrUrGrArCrArGrCrCrAdTdT / antisense rUrGrGrCrUrGrUrCrArGrGrUrUrGrGrGrArArGdGdA”, the normalised inhibition (eCFP-eYFP dual reporter) stood at 66.3%.
In the case of “sense rCrUrUrUrArCrUrUrCrUrGrUrGrGrGrArGrUrGdTdT / antisense rCrArCrUrCrCrCrArCrArGrArArGrUrArArArGdGdC” it was 67.7%.
For the substance “sense rGrArArArCrGrCrCrCrArUrCrArUrGrArUrGrGdTdT / antisense rCrCrArUrCrArUrGrArUrGrGrGrCrGrUrUrUrCdCdA”, the normalised inhibition (eCFP-eYFP dual reporter) was 48.7%.
With “sense rGrArArGrCrUrGrArGrArArCrUrUrCrArCrUrAdTdT / antisense rUrArGrUrGrArArGrUrUrCrUrCrArGrCrUrUrCdCdA” the figure was 88.8%; with “sense rGrArCrCrCrUrUrUrCrUrGrCrCrCrCrArUrCrUdTdT / antisense rArGrArUrGrGrGrGrCrArGrArArArGrGrGrUrCdCdT”, 65.8%.
In the case of “sense rGrArCrUrUrGrGrArCrArArGrGrCrCrUrGrGrGdTdT / antisense rCrCrCrArGrGrCrCrUrUrGrUrCrCrArArGrUrCdGdC” it was 93%; in that of “sense rGrArGrArArArArGrCrArGrCrGrUrGrUrCrCrCdTdT / antisense rGrGrGrArCrArCrGrCrUrGrCrUrUrUrUrCrUrCdAdG”, 68.3%; in that of “sense rGrArGrGrArGrArArArUrArCrCrGrCrUrGrUrGdTdT / antisense rCrArCrArGrCrGrGrUrArUrUrUrCrUrCrCrUrCdAdC”, 67.4%.
With “sense rGrArGrUrArGrUrUrCrArGrCrUrUrCrUrGrArUdTdT / antisense rArUrCrArGrArArGrCrUrGrArArCrUrArCrUrCdGdG” the figure was 91.8%.
With “sense rGrArUrUrCrUrGrCrCrCrArGrArGrArGrUrGrAdTdT / antisense rUrCrArCrUrCrUrCrUrGrGrGrCrArGrArArUrCdCdT”, the normalised inhibition (eCFP-eYFP dual reporter) came to 96.9%.
In the case of “sense rGrCrArCrCrUrCrGrGrUrCrUrUrUrGrUrCrArUdTdT / antisense rArUrGrArCrArArArGrArCrCrGrArGrGrUrGrCdCdC” it was 85.9%.
With “sense rGrCrGrGrArGrArArGrCrArGrUrCrCrArCrCrGdTdT / antisense rCrGrGrUrGrGrArCrUrGrCrUrUrCrUrCrCrGrCdTdG” the figure was 81.8%; with “sense rGrCrGrGrCrCrUrUrUrArCrUrUrCrUrGrUrGrGdTdT / antisense rCrCrArCrArGrArArGrUrArArArGrGrCrCrGrCdCdA”, 61.4%.
Consider “sense rGrCrGrGrGrGrCrArGrGrArUrUrUrUrGrCrCrAdTdT / antisense rUrGrGrCrArArArArUrCrCrUrGrCrCrCrCrGrCdAdA”, for which the normalised inhibition (eCFP-eYFP dual reporter) turned out to be 67.8%.
In the case of “sense rGrCrGrGrGrUrArGrGrGrGrArCrGrUrGrGrUrCdTdT / antisense rGrArCrCrArCrGrUrCrCrCrCrUrArCrCrCrGrCdAdA” it was 37.2%; in that of “sense rGrCrUrCrCrGrGrArCrUrCrUrArCrGrCrCrArAdTdT / antisense rUrUrGrGrCrGrUrArGrArGrUrCrCrGrGrArGrCdCdC”, 87.3%; in that of “sense rGrGrArArArCrGrCrCrCrArUrCrArUrGrArUrGdTdT / antisense rCrArUrCrArUrGrArUrGrGrGrCrGrUrUrUrCrCdAdC”, 74.8%.
